Measurements from patent US8637525B2, “Compounds for the reduction of beta-amyloid production” (Bristol-Myers Squibb Company, priority 2009, dated 2014).

The molecules below were run on Aβ1-42 production (assay: Cellular assay for inhibition of Aβ1-42 production (H4 APP751 SWE clone 8.20)). Details: 19 h, H4 APP751 SWE clone 8.20 cells, 19 h incubation; class symbols; read-out: Activity Rating (Aβ42 cellular IC50).
Type: cell-based
In short: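 Inhibition values are IC50s fitted to Viewlux counts after a 19 h compound exposure at 37 °C. Aβ42 was captured by the neoepitope-specific antibody 565 (0.8 ng/well) paired with N-terminal 26D6 (75 ng/well), incubated overnight at 4 °C in pH 7.4 Tris-HCl buffer containing 0.2% BSA.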

Compound	IC50 [nM]
CNc1nc(Nc2ccc(-c3ccnc(C)c3)c(OC)c2)nc2c1CCC2c1ccccc1 (centres unmarked) [Example 261, N2-(3-methoxy-4-(2-methylpyridin-4-yl)phenyl)-N4-methyl-7-phenyl-6,7-dihydro-5H-cyclopenta[d]pyrimidine-2,4-diamine]	1.5 to 9.9
CNc1nc(Nc2ccc(-c3ccncc3)c(OC)c2)nc2c1CCC2c1ccccc1 (centres unmarked) [Example 262, N2-(3-methoxy-4-(pyridin-4-yl)phenyl)-N4-methyl-7-phenyl-6,7-dihydro-5H-cyclopenta[d]pyrimidine-2,4-diamine]	1.5 to 9.9
CNc1nc(Nc2ccc(-n3cnc(C)c3)c(OC)n2)nc2c1CCC2c1ccc(F)cc1 (centres unmarked) [Example 267, 7-(4-fluorophenyl)-N2-(6-methoxy-5-(4-methyl-1H-imidazol-1-yl)pyridin-2-yl)-N4-methyl-6,7-dihydro-5H-cyclopenta[d]pyrimidine-2,4-diamine]	10 to 100
CNc1nc(Nc2ccc(-n3cnc(C)n3)c(OC)c2)nc2c1CCC2c1ccc(N(C)C)cc1 (centres unmarked) [Example 273, 7-(4-(dimethylamino)phenyl)-N2-(3-methoxy-4-(3-methyl-1H-1,2,4-triazol-1-yl)phenyl)-N4-methyl-6,7-dihydro-5H-cyclopenta[d]pyrimidine-2,4-diamine]	10 to 100
CNc1nc(Nc2ccc(-n3cnc(C)n3)c(OC)c2)nc2c1CCC2c1ccc(C(F)(F)F)nc1 (centres unmarked) [Example 276, N2-(3-methoxy-4-(3-methyl-1H-1,2,4-triazol-1-yl)phenyl)-N4-methyl-7-(6-(trifluoromethyl)pyridin-3-yl)-6,7-dihydro-5H-cyclopenta[d]pyrimidine-2,4-diamine]	10 to 100
CNc1nc(Nc2ccc(-c3cc(Cl)ncn3)c(OC)c2)nc2c1CCC2c1ccccc1 (centres unmarked) [Example 277, N2-(4-(6-chloropyrimidin-4-yl)-3-methoxyphenyl)-N4-methyl-7-phenyl-6,7-dihydro-5H-cyclopenta[d]pyrimidine-2,4-diamine]	> 1000
CNc1nc(Nc2ccc(-c3ccnc(Cl)c3)c(OC)c2)nc2c1CCC2c1ccccc1 (centres unmarked) [Example 278, N2-(4-(2-chloropyridin-4-yl)-3-methoxyphenyl)-N4-methyl-7-phenyl-6,7-dihydro-5H-cyclopenta[d]pyrimidine-2,4-diamine]	10 to 100

Second part, the molecule after the results:

IC50 [nM]	Compound
10 to 100	CNc1nc(Nc2ccc(-n3ncnc3C)c(OC)c2)nc2c1CC[C@@H]2c1ccc(F)cc1 [Example 264B, (R)-7-(4-fluorophenyl)-N2-(3-methoxy-4-(5-methyl-1H-1,2,4-triazol-1-yl)phenyl)-N4-methyl-6,7-dihydro-5H-cyclopenta[d]pyrimidine-2,4-diamine]
10 to 100	CNc1nc(Nc2ccc(-n3cnc(C)n3)c(OC)c2)nc2c1CC[C@@H]2c1ccccc1OC [Example 266B, (R)—N2-(3-methoxy-4-(3-methyl-1H-1,2,4-triazol-1-yl)phenyl)-7-(2-methoxyphenyl)-N4-methyl-6,7-dihydro-5H-cyclopenta[d]pyrimidine-2,4-diamine]
10 to 100	CNc1nc(Nc2ccc(-n3cnc(C)n3)c(OC)c2)nc2c1CC[C@@H]2c1ccccc1Cl [Example 268B, (R)—N2-(3-methoxy-4-(3-methyl-1H-1,2,4-triazol-1-yl)phenyl)-7-(2-chlorophenyl)-N4-methyl-6,7-dihydro-5H-cyclopenta[d]pyrimidine-2,4-diamine]
10 to 100	CNc1nc(Nc2ccc(-n3cnc(C)n3)c(OC)c2)nc2c1CC[C@@H]2c1cccc(OC)c1 [Example 272B, (R)—N2-(3-methoxy-4-(3-methyl-1H-1,2,4-triazol-1-yl)phenyl)-7-(3-methoxyphenyl)-N4-methyl-6,7-dihydro-5H-cyclopenta[d]pyrimidine-2,4-diamine]

Same assay, conditions: 19 h, H4 APP751 SWE clone 8.20 cells, 19 h incubation; read-out: Activity Rating (Aβ42 cellular IC50), numeric value

IC50 [nM]	Compound
940	C#Cc1ccc(Nc2nc(NC)c3c(n2)C(c2ccc(F)cc2)CC3)cc1 (centres unmarked) [Example 259, N2-(4-ethynylphenyl)-7-(4-fluorophenyl)-N4-methyl-6,7-dihydro-5H-cyclopenta[d]pyrimidine-2,4-diamine]
860	CC#Cc1ccc(Nc2nc(NC)c3c(n2)C(c2ccc(F)cc2)CC3)cc1 (centres unmarked) [Example 260, 7-(4-fluorophenyl)-N4-methyl-N2-(4-(prop-1-ynyl)phenyl)-6,7-dihydro-5H-cyclopenta[d]pyrimidine-2,4-diamine]
32	CNc1nc(Nc2ccc(-c3cccnc3)c(OC)c2)nc2c1CCC2c1ccccc1 (centres unmarked) [Example 263, N2-(3-methoxy-4-(pyridin-3-yl)phenyl)-N4-methyl-7-phenyl-6,7-dihydro-5H-cyclopenta[d]pyrimidine-2,4-diamine]
